Test results reported in patent US20260008784A1 (VASTHERA CO., LTD., priority 2022, published 2026).

Tests used:
[1] = test system: Tyr 857 phosphorylation of PDGF receptor-β (PDGFRβ) in HASMC; experiment: Immunoblot of PDGF-mediated signaling in PrxII knock-down HASMC; type: cell-based, human; conditions: for Effect on phosphorylation of Tyr 857 on PDGFR: HASMC depleted of PrxII expression, FIG. 2
Procedure, shortened: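 HASMC and PASMC with PrxII knocked down by siRNA were treated with test compounds and PDGF-stimulated. Lysates in Hepes pH 7.0/Triton X-100 buffer with phosphatase and protease inhibitors were immunoblotted with anti-phospho-Tyr 857 PDGFRβ antibody. Membranes were stripped and reprobed.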

NIH-3T3 cells = experiment: Intracellular H2O2-eliminating activity (CM-H2DCF-DA fluorescence); type: cell-based; conditions: Mus musculus, NIH3T3, glucose oxidase, concentration at 50% reduction of intracellular H2O2
Description: The activity of test compounds in present invention to eliminate intracellular H2O2 was measured as follows. NIH-3T3 cells (ATCC) were seeded in a 35-mm culture dish at 2×10^5 cells/well. After culture for 24 hours, cells were serum-starved with phenol red free-basal DMEM containing 0.5% FBS for 6 h. Starved NIH 3T3 cells were pretreated with compounds diluted with phenol red free-basal DMEM at concentrations ([…]) for 30 min, followed by treatment with 20 mU of glucose oxidase (Gox) for 30 min. A reactive oxygen species-sensitive fluorescence dye, carboxymethyl-dichlorofluorescein-diacetate (CM-H2DCF-DA), which was prepared in 1 mM DMSO stock and diluted 500 times in phenol red free-basal DMEM, was added to the cells and incubated for 5 min. Then, cells were quickly rinsed with basal medium. Images were taken at excitation 497 nm/emission 518 nm settings using a fluorescence microscope. Three images at 10× magnification per sample were obtained, and fluorescence intensities from 30 or more individual cells per image were averaged.
The intracellular H2O2-eliminating activity of test compounds in present invention was measured using a live-cell imaging fluorescence probe (CM-HaDCF-DA). H2O2-eliminating activity was measured depending on ascending concentrations of the test compound and expressed as the percent of activity compared to the untreated control group. EC50 represents the concentration of test compound at 50% reduction of intracellular H2O2.

[2] = test system: human pulmonary artery smooth muscle cell (PASMC); experiment: PDGF-induced proliferation assay, PASMC (PrxII siRNA); type: cell-based; conditions: for Degree of PASMC proliferation: PDGF-BB 25 ng/mL, percent of untreated control; for IC50: Homo sapiens, PASMC, 50% growth inhibition, PDGF-stimulated
Description: HASMCs and PASMCs were transfected with a PrxII-specific siRNA using RNAi MAX transfection reagent according to manufacturer's protocol. After 24 hours, transfected cells (3,000 cells/well) were seeded in a 96-well culture plate. At 12 h after seeding, cells were serum-starved for additional 18 h in SmBM basal medium containing 0.5% FBS. Test compounds were serially diluted with the same basal medium containing 0.5% FBS, added to the cells ([…]), and incubated for 2 h. After treatment, cells were placed in fresh SmBM medium containing 0.5% FBS and PDGF-BB (25 ng/mL) for growth factor stimulation and further cultured for 24 h.
The degree of cell proliferation was measured using the Cell Titer-GLO kit ([…]). Data are the percent of luminescence intensity averaged from three replicate wells versus that of untreated control group.
In human aortic smooth muscle cell (HASMC) and human pulmonary artery smooth muscle cell (PASMC) in which PrxII was knocked out by transfecting the PrxII siRNA, the ability of test compounds to inhibit the PDGF-induced proliferation of vascular smooth muscle cells was evaluated. In Table 6, the degree of proliferation in the compound-treated groups is expressed as percent of the degree of proliferation in untreated control group. The concentrations of test compounds corresponding to 50% growth inhibition (IC50) is also listed.

[3] = Measurement of redox potential (DTT redox buffers, HPLC); type: physicochemical; conditions: DTT(Red)/DTT(Ox) redox buffers, 3 h, 30° C., 50% reduction of test compound

SMILES | Effect on phosphorylation of Tyr 857 on PDGFR [1] | Concentrations at which phosphorylation of Tyr 857 on PDGFRβ is significantly reduced ([1]; HASMCs, PrxII knock-down, FIG. 1) | EC50 (NIH-3T3 cells) [nM] | Degree of PASMC proliferation ([2]; 2.5 nM) [%] | Degree of PASMC proliferation ([2]; 5 nM) [%] | Degree of PASMC proliferation ([2]; 10 nM) [%] | Degree of PASMC proliferation ([2]; 25 nM) [%] | Degree of PASMC proliferation ([2]; 50 nM) [%] | Degree of PASMC proliferation ([2]; 100 nM) [%] | IC50 [2] [nM] | Midpoint redox potential (E m) [3] [mV]
CN1C(=O)C2(C)SSCC1C(=O)N2C (stereo not drawn) [Compound 1, 1,6,8-trimethyl-2,3-dithia-6,8-diazabicyclo[3.2.2]nonane-7,9-dione] | strongly abolish the phosphorylation | above 2.5 nM | 8.25 | 70.8 | 49.8 | 29.4 | 14.3 | 0.0 | 0.0 | 5.01 | −285.25
O=C1C2CSSC3(COCCN13)C(=O)N2Cc1ccccc1 (stereo not drawn) [Compound 8, 12-benzyltetrahydro-5H,10H-4,10a-(epiminomethano)[1,4]oxazino[3,4-c][1,2,4]dithia zepine-5,11-dione] |  |  | 6.57 | 57.7 | 41.7 | 24.8 | 5.7 | 0.0 | 0.0 | 3.52 | −272.6
CCN1C(=O)C2(C)SSCC1C(=O)N2CC (stereo not drawn) [Compound 20, 6,8-diethyl-1-methyl-2,3-dithia-6,8-diazabicyclo[3.2.2]nonane-7,9-dione] | strongly abolish the phosphorylation |  |  | 82.2 | 51.5 | 31.6 | 21.1 | 7.3 | 5.2 | 6.17 | −296.79
CN1C(=O)C2CSSC1(C)C(=O)N2Cc1ccc2ccccc2n1 (stereo not drawn) [Compound 5, 1,8-dimethyl-6-(quinolin-2-ylmethyl)-2,3-dithia-6,8-diazabicyclo[3.2.2]nonane-7,9-dione] | strongly abolish the phosphorylation |  | 7.77 | 71.3 | 48.3 | 37.5 | 26.8 | 1.9 | 2.5 | 5.64 | −290.3
